Data set [1] deals with philtrum skin. The data set is described as follows: philtrum skin cooling bioassay (subjective coolness rating 0-3). Type of data set: in vivo, human. Conditions: for Ratio of AUC 75/25% R/S to 25/75% R/S (fold increase in cooling activity): 49% distilled water, 1% ethanol. An excerpt:
The term “alcoholic solvent” refers to a chemical with one to four carbons with at least one hydroxyl group attached to a carbon atom. A reliable place for topical application is the skin above the upper lip (above the vermilion border of the lips), on the philtrum, lateral to the philtrum until the nasolabial folds, and on the lower nostrils (subnasale). This part of the face is known to be densely innervated with cold receptors, second only to the surfaces of the eyeball and anogenitalia. Tingling, cool and cold sensations from the skin may be experienced and rated for time of onset and intensity.
The intervals for recording sensations are 5 to 10 minutes, until two successive zeros are obtained. The results (shown in the Figures) are averaged values of 4 to 6 separate trials in the same individual. The data are plotted using SigmaPlot (Systat Software, Point Richmond, Calif.) and a smoothing function with a negative exponential was used for analysis and statistical fit of the results. The onset of drug action is taken as the time to reach 2 units of coolness intensity, and offset of drug action is the time when coolness intensity drops below 2, after previously surpassing 2 units. […] The duration of cooling action is defined as the offset time minus the onset time and the primary index of effect. As described in Examples, the test compounds were tested at 2 to 10 mg/mL of vehicle.
For assays on the skin, the cooling agent(s) was dissolved in the alcoholic solvent to yield a 2, 2.5, 3, 5 or 10 mg/mL solution. Using a cotton-tipped applicator (e.g. Q-tips®) 0.10 to 0.25 mL of the test solution was applied to the skin above the upper lip, on the philtrum, and lateral to the philtrum up to the nasolabial folds, and the onset and duration of cooling sensations noted. […] The interval for recording sensations was at 5 to 10 minute intervals, until at least two successive zeros were obtained. The results were averaged values of 3 to 6 separate trials in the same individual. The “onset” is the time taken to reach a coolness intensity value of 2. […] The “off-set” is when the coolness intensity drops below 2, and the duration is the time of off-set minus the time of onset. The area under the curve (AUC) gives an estimate of the intensity and duration of drug action and can be obtained from the plotted data using SigmaPlot (Systat Software, Point Richmond, Calif.). The AUC unit is the product of cooling intensity x min.

The test system of data set [2] is dorsal surface of the tongue. Conditions: 6 subjects; 100-fold variation in individual sensitivity; cited from earlier work.
The target in data set [3] is T1, cloned hTRPM8 channel (human TRPM8 gene, expressed in CHO cells) (Homo sapiens, UniProt Q7Z2W7).
T1 construct: host or cells: CHO cells
The data set is described as follows: agonist activity on cloned hTRPM8 channel, Fluo-8 calcium kit, FLIPR. Type of data set: cell-based. The procedure: The in vitro effects of test articles were evaluated on cloned hTRPM8 channel (encoded by the human TRPM8 gene, expressed in CHO cells) using a Fluo-8 calcium kit and a Fluorescence Imaging Plate Reader (FLIPR^TETRA™) instrument. […] The total number of carbons in these trialkylphosphine oxides ranged from 12 to 15.
To further examine solvent-receptor interactions, stock solutions of 1-7 [1-(Diisopropyl-phosphinoyl)-heptane] were prepared in dimethyl sulfoxide (DMSO) or DMSO containing 10% or 30% by volume of the three isomers of 1,2-propanediol, (R/S-PD, R-PD, and S-PD) and stored frozen. Six dose levels were tested ranging from 0.003 to 3 μM. Ten μl of the test article solution were added to 40 μl of cells in HBPS in glass-lined 384-well compound plates, and placed into the FLIPR instrument for the fluorescence readout (Molecular Devices Corporation, Union City, Calif.).

For another data set, the target named is TRPM8 receptor (Homo sapiens, UniProt Q7Z2W7). Conditions: cited from earlier work.
The test system of data set [4] is itch (contact dermatitis) on the scalp. In words: topical application to scalp itch (contact dermatitis after hair dye), one individual. Particulars: 5 mg/mL in 1% ethanol-99% (R)-1,2-propanediol, Yorker spout bottle. The data set is classed as in vivo, human. On the procedure:
An individual developed intense itch (contact dermatitis) on the scalp at the base of the skull after use of hair dye. A cotton-tipped stick was used to apply CPS-410 or CPS-412, 5 mg/mL dissolved in a 1% ethanol-99% (R)-1,2-propanediol, to the site of itch. The itch sensations were suppressed within 5 min after application of either solution and this effect lasted for at least 8 hr. In a second experiment, the solutions were applied using a plastic bottle with a conical Yorker spout. This allowed more precise droplet delivery of the solution to the site of itch. […] The advantage of liquid formulation is the ease of uniform delivery to the inflamed site, a method not achievable with cream or ointment. Itch symptoms of hair and fur occur in seborrheic dermatitis, psoriasis, insect bites, canine pruritus, and allergic dermatitis. Liquid formulations containing (R)-1,2-propanediol and a cooling agent may be therapeutically valuable in these conditions.

Data set [5] concerns periorbital skin and skin above the cheekbone. The data set is described as follows: cosmetic wipe over periorbital skin and skin above the cheekbone, six female subjects. Type of data set: in vivo, human. Particulars: 10 mg/mL in water (50%), 10% (S)-, 40% (R)-1,2-propanediol. On the procedure: Six female subjects working at a cosmetics company volunteered to try topical applications of 1-7 and/or 1-8, formulated at 10 mg/mL in water (50%) and 10% (S)-1,2-propanediol, 40% (R)-1,2-propanediol wt/wt. The liquid was put on a cotton square and wiped over the periorbital skin and the skin above the cheekbone. All the subjects remarked on a refreshing coolness on the skin at the sites of application within 2 min after application. There was a “wow” effect, that was considered pleasant and stimulating. […] Four of the six subjects said they felt more “awake and energetic.”

Data set [6] relates to philtrum skin. The data set is described as follows: philtrum skin cooling bioassay (subjective coolness rating 0-3). Type of data set: in vivo, human.
The next data set has as its system rodents. Particulars: oral; cited from earlier work.
A further data set deals with humans. Particulars: based on intravenous infusion studies; cited from earlier work.
Setting [7] is: 10 mg/mL in (R)-1,2-propanediol.
Where [8] appears, read: TRPM8 receptor assay, read-out: EC50 μM (95% C, L.).

Read-outs that look alike come from different tables or passages of the source.

By EC50 is commonly meant the midpoint of the concentration-response curve.

T1 sequence (Q7Z2W7 whole entry): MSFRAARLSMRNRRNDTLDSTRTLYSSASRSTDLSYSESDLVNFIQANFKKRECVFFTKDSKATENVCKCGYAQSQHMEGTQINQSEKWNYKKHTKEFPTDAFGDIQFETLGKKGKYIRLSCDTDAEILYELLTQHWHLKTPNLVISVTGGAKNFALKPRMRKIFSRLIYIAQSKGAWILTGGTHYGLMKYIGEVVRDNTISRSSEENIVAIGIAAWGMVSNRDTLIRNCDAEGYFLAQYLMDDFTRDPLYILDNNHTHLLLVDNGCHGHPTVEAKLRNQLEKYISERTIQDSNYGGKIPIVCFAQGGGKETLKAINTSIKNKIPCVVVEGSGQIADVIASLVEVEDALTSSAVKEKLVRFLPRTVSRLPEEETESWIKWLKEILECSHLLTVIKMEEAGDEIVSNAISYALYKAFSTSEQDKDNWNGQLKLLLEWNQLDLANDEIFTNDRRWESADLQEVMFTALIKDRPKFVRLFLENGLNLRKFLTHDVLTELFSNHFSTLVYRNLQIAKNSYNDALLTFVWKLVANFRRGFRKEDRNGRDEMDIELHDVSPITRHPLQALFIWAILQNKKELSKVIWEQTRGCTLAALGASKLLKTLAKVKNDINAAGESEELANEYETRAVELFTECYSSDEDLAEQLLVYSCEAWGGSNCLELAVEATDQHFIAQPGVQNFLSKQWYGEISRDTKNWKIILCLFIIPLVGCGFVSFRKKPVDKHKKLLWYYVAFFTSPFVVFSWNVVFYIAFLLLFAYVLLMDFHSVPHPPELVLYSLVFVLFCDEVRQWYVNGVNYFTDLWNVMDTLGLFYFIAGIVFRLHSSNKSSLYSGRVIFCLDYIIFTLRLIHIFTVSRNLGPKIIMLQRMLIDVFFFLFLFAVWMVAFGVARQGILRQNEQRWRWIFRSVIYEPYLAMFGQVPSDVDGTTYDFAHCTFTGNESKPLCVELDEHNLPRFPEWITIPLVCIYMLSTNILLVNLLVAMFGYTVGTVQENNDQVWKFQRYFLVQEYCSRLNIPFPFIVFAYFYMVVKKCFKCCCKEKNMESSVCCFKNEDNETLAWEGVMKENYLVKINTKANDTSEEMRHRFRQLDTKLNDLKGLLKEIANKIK
Sequence of TRPM8 receptor (Q7Z2W7 whole entry): as above

`CC(C)[C@@H]1CC[C@@H](C)C[C@H]1O` (single isomer, unassigned) [(−)-menthol, reference compound]: the cooling duration in the data set with philtrum skin [1] (10 mg/mL in 1,3-propanediol) amounted to 13 ± 1 min; in the data set with philtrum skin [1] (setting [7]), 21 ± 2 min. Besides, the “average threshold for cooling on tongue (Threshold, μg)” value in data set [2] was 0.25 µg.
Take `CCCCCCP(=O)(C(C)CC)C(C)CC` (stereo not shown) [CPS-147, 1-(Di-sec-butyl-phosphinoyl)-hexane]: in the data set on philtrum skin [1], the “Ratio of AUC 75/25% R/S to 25/75% R/S (fold increase in cooling activity)” value is 1.6. Besides, the “Potency Relative to I-menthol” value in [3] (TRPM8 receptor assay) amounted to 4.7. In data set [3] (setting [8]), the EC50 worked out at 0.8 µM.
As for `CCO` [ethanol], the “inhibition of TRPM8 receptor response to (−)-menthol” value on TRPM8 receptor (0.5% ethanol in the medium) was 50%. Moreover, the “TRPM8 receptor response to (−)-menthol” value at TRPM8 receptor (3% concentration of ethanol) is “almost totally lost”.
With `CCCOC(=O)[C@@H](C)NC(=O)[C@@H]1C[C@H](C)CC[C@H]1C(C)C` [CPS-410, (R)-2-[((1R,2S,5R)-2-isopropyl-5-methyl-cyclohexanecarbonyl)-amino]-propionic acid n-propyl ester], the “sensations of coolness after application to scalp” value in data set [4] is “produced sensations of coolness”.
On to `CCOC(=O)CNC(=O)[C@@H]1C[C@H](C)CC[C@H]1C(C)C` [WS-5, [((1R,2S,5R)-2-isopropyl-5-methyl-cyclohexanecarbonyl)-amino]-acetic acid ethyl ester, reference compound], for which the cooling effect entry in the data set on philtrum skin [1] (10 mg/mL in 100% ethanol) is on record as “did not produce any cooling effect”.
With `CCCCOC(=O)[C@@H](C)NC(=O)[C@@H]1C[C@H](C)CC[C@H]1C(C)C` [CPS-412, (R)-2-[((1R,2S,5R)-2-isopropyl-5-methyl-cyclohexanecarbonyl)-amino]-propionic acid n-butyl ester], the “sensations of coolness after application to scalp” value in [4] is “less noticeable”.
Consider `CCCCCCCP(=O)(C(C)C)C(C)C` [1-7, 1-(Diisopropyl-phosphinoyl)-heptane], for which the “Ratio of AUC 75/25% R/S to 25/75% R/S (fold increase in cooling activity)” value in the data set on philtrum skin [1] is reported as 1.6. Also, the “ratio of the EC50 for the R versus S enantiomers of 1,2-propanediol” value in data set [3] (C.L. overlap) was “about 2”. In addition, the EC50 worked out at 1.6 µM in data set [3] (HBPS, 30% volume series, read-out: EC50 (95% C.L.)); 0.7 µM in data set [3] (setting [8]); 2.2 µM in data set [3] (stock in DMSO containing 30% by volume R-PD, read-out: EC50 (95% C.L.)); 2.9 µM in data set [3] (stock in DMSO containing 30% by volume R/S-PD, read-out: EC50 (95% C.L.)); 4.4 µM in [3] (stock in DMSO containing 30% by volume S-PD, read-out: EC50 (95% C.L.)). Besides, the “Potency Relative to I-menthol” value in data set [3] (TRPM8 receptor assay) stood at 5.4. Besides, the “irritation or redness on the skin after applications” value in [5] is given as “no irritation or redness”. Besides, in data set [5] (all subjects), the “time facial skin felt cool and dry after application” value is “at least one hour”.
In the case of `CCNC(=O)C1CC(C)CCC1C(C)C` (stereo not shown) [WS-3, 2-Isopropyl-5-methyl-cyclohexanecarboxylic acid ethylamide], the “duration of robust cooling” value with philtrum skin [6] (20 mg/mL in 97% (R)-1,2-propanediol-3% ethanol, with prickling and stinging sensations) is 38 ± 3 min. The cooling effect result in the data set with philtrum skin [6] (20 mg/mL in absolute ethanol) was “did not produce significant cooling”.
As to `CCCCCP(=O)(C(C)CC)C(C)CC` (stereo not shown) [2-5], the “Ratio of AUC 75/25% R/S to 25/75% R/S (fold increase in cooling activity)” value in the data set with philtrum skin [1] stood at 1.4. Moreover, the “Potency Relative to I-menthol” value in [3] (TRPM8 receptor assay) is 2.2. Also, in data set [3] (setting [8]), the half-maximal effective concentration (EC50) came out at 1.7 µM.
With “(R)-(−)-1,2-propanediol [(R)-1,2-propanediol]”, the “effect on ethanol inhibition of WS-5 cooling” value in the data set with philtrum skin [1] (added at 10%, 20% and 40% vol/vol to ethanolic solution of WS-5 10 mg/mL) is “reversed the ethanol inhibition in a dose-dependent relationship”.
Regarding `CCOC(=O)[C@@H](C)NC(=O)[C@@H]1C[C@H](C)CC[C@H]1C(C)C` [CPS-369, (R)-2-[((1R,2S,5R)-2-isopropyl-5-methyl-cyclohexanecarbonyl)-amino]-propionic acid ethyl ester], the “Cooling Activity % (relative to (R)-1,2-propanediol)” value was “inactive” with philtrum skin [1] (10 mg/mL in 1,3-propanediol, inactive = did not exceed 2 units of coolness); 100% in the data set with philtrum skin [1] (setting [7]); 47% in the data set on philtrum skin [1] (10 mg/mL in (S)-1,2-propanediol, based on AUC); “inactive” in the data set on philtrum skin [1] (10 mg/mL in ethanol, inactive = did not exceed 2 units of coolness); “inactive” in the data set on philtrum skin [1] (10 mg/mL in isopropanol, inactive = did not exceed 2 units of coolness); “inactive” with philtrum skin [1] (10 mg/mL in n-propanol, inactive = did not exceed 2 units of coolness). Also, in the data set with philtrum skin [1] (10 mg/mL in racemic 1,3-butanediol), the “Cooling Activity % (relative to (R)-1,2-propanediol)” value is reported as 10%.
Regarding `CCCCCCCCP(=O)(C(C)CC)C(C)CC` (stereo not shown) [2-8], the “Potency Relative to I-menthol” value in data set [3] (TRPM8 receptor assay) amounted to 2.9. The EC50 in data set [3] (setting [8]) came out at 1.3 µM.
For the compound `CC(O)CO` (racemic) [racemic 1,2-propanediol], in the data set on rodents, the median lethal dose entry is recorded as “about 25 mL/kg of body weight”. Besides, in the data set on humans, the estimated safe dose is 1 g per kg body weight per day.
Regarding `CCCCCCP(=O)(C(C)C)C(C)C` [1-6], the “Ratio of AUC 75/25% R/S to 25/75% R/S (fold increase in cooling activity)” value with philtrum skin [1] turned out to be 1.7. Also, the “Potency Relative to I-menthol” value in [3] (TRPM8 receptor assay) is recorded as 1.6. For the same compound, in data set [3] (setting [8]), the EC50 was determined as 2.4 µM.
The corresponding values for `CCCCCP(=O)(C(C)C)C(C)C` [1-5] are 1.5, 0.7 and 5.6 µM.
As for `CCCCCCCCCP(=O)(C(C)C)C(C)C` [1-9], the “Potency Relative to I-menthol” value in [3] (TRPM8 receptor assay) stood at 4.0. Besides, in [3] (setting [8]), the 50% effective concentration (EC50) came out at 0.9 µM.
For `CCCCP(=O)(C(C)CC)C(C)CC` (stereo not shown) [2-4], in the data set on philtrum skin [1], the “Ratio of AUC 75/25% R/S to 25/75% R/S (fold increase in cooling activity)” value stood at 1.9. In addition, the “Potency Relative to I-menthol” value in [3] (TRPM8 receptor assay) stood at 0.3. Moreover, the concentration for a half-maximal effect (EC50) in data set [3] (setting [8]) stood at 14.5 µM.

Values taken from patent US20150105349A1, “(R)-(-)-1,2-propanediol compositions and methods” (priority 2013, published 2015).
